Each compound was assayed on HCV genotype 1b (Con1) replicon in HUH-7 cells (assay: HCV replicon luciferase reporter assay, genotype 1b). Conditions: Hepatitis C virus, 72 h, genotype 1b replicon, 3 days incubation, read-out: LE_1b (EC50).
Format: cell-based
Excerpt: An HCV replicon whole cell system was established as described by Lohmann V, Korner F, Koch J, Herian U, Theilmann L, Bartenschlager R., Science 285(5424):110-3 (1999) and modified to introduce a luciferase reporter, as first described by Krieger et al (Krieger N, Lohmann V, and Bartenschlager R, J. Virol. 75(10):4614-4624 (2001)). CDNA encoding a humanized form of the Renilla luciferase gene and a linker sequence fused directly to the 3′-end of the luciferase gene were introduced into the replicon construct using an Asc1 restriction site located in core, directly upstream of the neomycin marker gene. The adaptive mutation at position 1179 (serine to isoleucine) was also introduced (Blight K J, Kolykhalov, A A, Rice, C M, Science 290(5498):1972-1974). A stable cell line constitutively expressing this HCV replicon construct was generated by first linearizing plasmid DNAs with ScaI. RNA transcripts were synthesized in vitro using the T7 MegaScript transcription kit (Ambion, Austin, Tex.) according to manufacturer's directions. In vitro transcripts of the cDNA were transfected into the human hepatoma cell line, HUH-7. […] Resulting cell lines were characterized for positive and negative strand RNA production and protein production over time. […]
HCV replicon luciferase assays were developed to monitor the inhibitory effects of compounds described in the disclosure on HCV genotypes 1a and 1b viral replication. HUH-7 cells, constitutively expressing the HCV replicon, were grown in Dulbecco's Modified Eagle Media (DMEM) (Gibco-BRL) containing 10% Fetal calf serum (FCS) (Sigma) and 1 mg/mL G418 (Gibco-BRL). Compounds were serially diluted 3 folds in DMSO for a twenty-point titration and subsequently transferred to sterile 384-well tissue-culture treated plates (Corning cat #3571). The plates were then seeded with 50 μL of cells at a density of 3.0×10^3 cells/well in DMEM containing 4% FCS (final DMSO concentration at 0.5%). After 3 days incubation at 37° C., cells were analyzed for Renilla Luciferase activity using the EnduRen as substrate (Promega cat #E6485). The EnduRen substrate was diluted in DMEM and then added to the plates to a final concentration of 7.5 μM. The plates were incubated for 2 hrs at 37° C. and then read immediately for 30 seconds with Viewlux Imager (PerkinElmer) using a luminescence program. To assess cytotoxicity of compounds, CC50 values were generated by multiplexing the EnduRen-containing plates with Cell Titer-Blue (Promega, cat # G8082). Cell-Titer Blue (3 μL) was added to each well and incubated for 8 hrs at 37° C. The fluorescence signal from each well was read, with an excitation wavelength at 525/10 nm and an emission wavelength of 598/10 nm, using the Viewlux Imager.
The EC50 values for compounds were calculated by using a four-parameter logistic equation: y=A+((B−A)/(1+((C/x)^D))), where A and B denotes minimal and maximal % inhibition, respectively, C is the EC50, D is the hill slope and x represents compound concentration.
`CCOc1cnc(O[C@@H]2C[C@H]3C(=O)N[C@]4(C(=O)NS(=O)(=O)C5(C)CC5)C[C@H]4/C=C\CC[C@H](C)C[C@@H](COC)[C@H](NC(=O)OC(C)(C)C(C)(F)F)C(=O)N3C2)c2ccc(OC)cc12` [Compound 1067, 3,3-difluoro-2-methylbutan-2-yl ((2R,6S,7R,9S,13aS,14aR,16aS,Z)-2-((4-ethoxy-6-methoxyisoquinolin-1-yl)oxy)-7-(methoxymethyl)-9-methyl-14a-(((1-methylcyclopropyl)sulfonyl)carbamoyl)-5,16-dioxo-1,2,3,5,6,7,8,9,10,11,13a,14,14a,15,16,16a-hexadecahydrocyclopropa[e]pyrrolo[1,2-a][1,4]diazacyclopentadecin-6-yl)carbamate] showed an EC50 of 0.5 nM. Work on `COC[C@@H]1C[C@H](C)CC/C=C\[C@@H]2C[C@@]2(C(=O)NS(=O)(=O)C2(C)CC2)NC(=O)[C@@H]2C[C@@H](Oc3nc4cc(OC)c(F)cc4nc3C(F)(F)F)CN2C(=O)[C@H]1NC(=O)OC(C)(C)C(F)(F)F` [Compound 1048, 1,1,1-trifluoro-2-methylpropan-2-yl ((2R,6S,7R,9R,13aS,14aR,16aS,Z)-2-((6-fluoro-7-methoxy-3-(trifluoromethyl)quinoxalin-2-yl)oxy)-7-(methoxymethyl)-9-methyl-14a-(((1-methylcyclopropyl)sulfonyl)carbamoyl)-5,16-dioxo-1,2,3,5,6,7,8,9,10,11,13a,14,14a,15,16,16a-hexadecahydrocyclopropa[e]pyrrolo[1,2-a][1,4]diazacyclopentadecin-6-yl)carbamate] yielded an EC50 of 0.27 nM.

Same assay, conditions: Hepatitis C virus, 72 h, genotype 1b replicon, 3 days incubation, read-out: LE_1b (EC50, range)
`COC[C@@H]1C[C@H](C)CC/C=C\[C@@H]2C[C@@]2(C(=O)NS(=O)(=O)C2(C)CC2)NC(=O)[C@@H]2C[C@@H](Oc3nc4cc(OC)c(F)cc4nc3C(F)(F)F)CN2C(=O)[C@H]1NC(=O)OC(C)(C)C` [Compound 1047, tert-butyl ((2R,6S,7R,9R,13aS,14aR,16aS,Z)-2-((6-fluoro-7-methoxy-3-(trifluoromethyl)quinoxalin-2-yl)oxy)-7-(methoxymethyl)-9-methyl-14a-(((1-methylcyclopropyl)sulfonyl)carbamoyl)-5,16-dioxo-1,2,3,5,6,7,8,9,10,11,13a,14,14a,15,16,16a-hexadecahydrocyclopropa[e]pyrrolo[1,2-a][1,4]diazacyclopentadecin-6-yl)carbamate] gave an EC50 of 0.51 to 1 nM. Compound `COC[C@@H]1C[C@@H](C)CC/C=C\[C@@H]2C[C@@]2(C(=O)NS(=O)(=O)C2(C)CC2)NC(=O)[C@@H]2C[C@@H](Oc3nc4cc(OC)c(F)cc4nc3C(F)(F)F)CN2C(=O)[C@H]1NC(=O)OC(C)(C)C(F)(F)F` [Compound 1046, 1,1,1-trifluoro-2-methylpropan-2-yl ((2R,6S,7R,9S,13aS,14aR,16aS,Z)-2-((6-fluoro-7-methoxy-3-(trifluoromethyl)quinoxalin-2-yl)oxy)-7-(methoxymethyl)-9-methyl-14a-(((1-methylcyclopropyl)sulfonyl)carbamoyl)-5,16-dioxo-1,2,3,5,6,7,8,9,10,11,13a,14,14a,15,16,16a-hexadecahydrocyclopropa[e]pyrrolo[1,2-a][1,4]diazacyclopentadecin-6-yl)carbamate] has an EC50 of 1.01 to 5 nM. `COC[C@@H]1C[C@H](C)CC/C=C\[C@@H]2C[C@@]2(C(=O)NS(=O)(=O)C2(C)CC2)NC(=O)[C@@H]2C[C@@H](Oc3nc4cc(OC(C)C)ccc4nc3C(F)(F)F)CN2C(=O)[C@H]1NC(=O)OC(C)(C)C(F)(F)F` [Compound 1058, 1,1,1-trifluoro-2-methylpropan-2-yl ((2R,6S,7R,9R,13aS,14aR,16aS,Z)-2-((7-isopropoxy-3-(trifluoromethyl)quinoxalin-2-yl)oxy)-7-(methoxymethyl)-9-methyl-14a-(((1-methylcyclopropyl)sulfonyl)carbamoyl)-5,16-dioxo-1,2,3,5,6,7,8,9,10,11,13a,14,14a,15,16,16a-hexadecahydrocyclopropa[e]pyrrolo[1,2-a][1,4]diazacyclopentadecin-6-yl)carbamate] was tested, and the EC50 was 0.1 to 0.5 nM. In the case of `CCOc1ccc2nc(C(F)(F)F)c(O[C@@H]3C[C@H]4C(=O)N[C@]5(C(=O)NS(=O)(=O)C6(C)CC6)C[C@H]5/C=C\CC[C@@H](C)C[C@@H](COC)[C@H](NC(=O)OC(C)(C)C(C)(F)F)C(=O)N4C3)nc2c1` [Compound 1052, 3,3-difluoro-2-methylbutan-2-yl ((2R,6S,7R,9R,13aS,14aR,16aS,Z)-2-((7-ethoxy-3-(trifluoromethyl)quinoxalin-2-yl)oxy)-7-(methoxymethyl)-9-methyl-14a-(((1-methylcyclopropyl)sulfonyl)carbamoyl)-5,16-dioxo-1,2,3,5,6,7,8,9,10,11,13a,14,14a,15,16,16a-hexadecahydrocyclopropa[e]pyrrolo[1,2-a][1,4]diazacyclopentadecin-6-yl)carbamate], the EC50 is reported as 0.1 to 0.5 nM. `CCOc1ccc2nc(C(F)(F)F)c(O[C@@H]3C[C@H]4C(=O)N[C@]5(C(=O)NS(=O)(=O)C6(C)CC6)C[C@H]5/C=C\CC[C@H](C)C[C@@H](COC)[C@H](NC(=O)OC(C)(C)C(F)(F)F)C(=O)N4C3)nc2c1` [Compound 1053, 1,1,1-trifluoro-2-methylpropan-2-yl ((2R,6S,7R,9S,13aS,14aR,16aS,Z)-2-((7-ethoxy-3-(trifluoromethyl)quinoxalin-2-yl)oxy)-7-(methoxymethyl)-9-methyl-14a-(((1-methylcyclopropyl)sulfonyl)carbamoyl)-5,16-dioxo-1,2,3,5,6,7,8,9,10,11,13a,14,14a,15,16,16a-hexadecahydrocyclopropa[e]pyrrolo[1,2-a][1,4]diazacyclopentadecin-6-yl)carbamate] showed an EC50 of 1.01 to 5 nM. `CCOc1cnc(O[C@@H]2C[C@H]3C(=O)N[C@]4(C(=O)NS(=O)(=O)C5(C)CC5)C[C@H]4/C=C\CC[C@@H](C)C[C@@H](COC)[C@H](NC(=O)OC(C)(C)C(F)(F)F)C(=O)N3C2)c2ccc(OC)cc12` [Compound 1066, 1,1,1-trifluoro-2-methylpropan-2-yl ((2R,6S,7R,9R,13aS,14aR,16aS,Z)-2-((4-ethoxy-6-methoxyisoquinolin-1-yl)oxy)-7-(methoxymethyl)-9-methyl-14a-(((1-methylcyclopropyl)sulfonyl)carbamoyl)-5,16-dioxo-1,2,3,5,6,7,8,9,10,11,13a,14,14a,15,16,16a-hexadecahydrocyclopropa[e]pyrrolo[1,2-a][1,4]diazacyclopentadecin-6-yl)carbamate] gave an EC50 of 0.1 to 0.5 nM. For `COC[C@@H]1C[C@H](C)CC/C=C\[C@@H]2C[C@@]2(C(=O)NS(=O)(=O)C2(C)CC2)NC(=O)[C@@H]2C[C@@H](Oc3nc4cc(OC)c(F)cc4nc3C(F)(F)F)CN2C(=O)[C@H]1NC(=O)OC(C)(C)C(F)(F)F` [Compound 1048, 1,1,1-trifluoro-2-methylpropan-2-yl ((2R,6S,7R,9R,13aS,14aR,16aS,Z)-2-((6-fluoro-7-methoxy-3-(trifluoromethyl)quinoxalin-2-yl)oxy)-7-(methoxymethyl)-9-methyl-14a-(((1-methylcyclopropyl)sulfonyl)carbamoyl)-5,16-dioxo-1,2,3,5,6,7,8,9,10,11,13a,14,14a,15,16,16a-hexadecahydrocyclopropa[e]pyrrolo[1,2-a][1,4]diazacyclopentadecin-6-yl)carbamate], the EC50 was 0.1 to 0.5 nM. With `COC[C@@H]1C[C@H](C)CC/C=C\[C@@H]2C[C@@]2(C(=O)NS(=O)(=O)C2(C)CC2)NC(=O)[C@@H]2C[C@@H](Oc3nc(OC)c4c(OC)cccc4n3)CN2C(=O)[C@H]1NC(=O)OC(C)(C)C(C)(F)F` [Compound 1062, 3,3-difluoro-2-methylbutan-2-yl ((2R,6S,7R,9R,13aS,14aR,16aS,Z)-2-((4,5-dimethoxyquinazolin-2-yl)oxy)-7-(methoxymethyl)-9-methyl-14a-(((1-methylcyclopropyl)sulfonyl)carbamoyl)-5,16-dioxo-1,2,3,5,6,7,8,9,10,11,13a,14,14a,15,16,16a-hexadecahydrocyclopropa[e]pyrrolo[1,2-a][1,4]diazacyclopentadecin-6-yl)carbamate] the EC50 was 1.01 to 5 nM. With `COC[C@@H]1C[C@H](C)CC/C=C\[C@@H]2C[C@@]2(C(=O)NS(=O)(=O)C2(C)CC2)NC(=O)[C@@H]2C[C@@H](Oc3nc(OC)c4c(OC)cccc4n3)CN2C(=O)[C@H]1NC(=O)OC(C)(C)C(F)(F)F` [Compound 1060, 1,1,1-trifluoro-2-methylpropan-2-yl ((2R,6S,7R,9R,13aS,14aR,16aS,Z)-2-((4,5-dimethoxyquinazolin-2-yl)oxy)-7-(methoxymethyl)-9-methyl-14a-(((1-methylcyclopropyl)sulfonyl)carbamoyl)-5,16-dioxo-1,2,3,5,6,7,8,9,10,11,13a,14,14a,15,16,16a-hexadecahydrocyclopropa[e]pyrrolo[1,2-a][1,4]diazacyclopentadecin-6-yl)carbamate] the EC50 was 1.01 to 5 nM.

Reference: US9580463B2 (BRISTOL-MYERS SQUIBB COMPANY, priority 2013, dated 2017)
